Source: the supplement of paper PMC10307832

What was measured:
Test in all cases: relative viability (nuclei count vs DMSO), 5 days (fraction); higher = more cells survive
[1] = test system: A-427
Outline: (§1)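 Cells from lung cancer lines were seeded into 1536-well plates and, one day later, dosed by pin tool. Treatments were either a single drug or a fixed dose of an anchor drug with five library-drug doses (not always all listed) in √10 steps. After 5 days, nuclei were stained in a one-step fixation (final 0.05% Triton X-100, 1% formaldehyde, 1 ug/ml Hoechst) and counted on 4× images, and relative viability is the treated-to-vehicle nuclei ratio, as the median of duplicate plates.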

[2] = test system: BEN
Outline: as §1

[3] = test system: H3255
Outline: as §1

[4] = test system: HCC-15
Outline: as §1

[5] = test system: LC-2-ad
Outline: as §1

[6] = test system: LCLC-97TM1
Outline: as §1

[7] = test system: NCI-H1395
Outline: as §1

[8] = test system: NCI-H1650
Outline: as §1

[9] = test system: NCI-H1651
Outline: as §1

[10] = test system: NCI-H1755
Outline: as §1

[11] = test system: NCI-H1993
Outline: as §1

[12] = test system: NCI-H2009
Outline: as §1

[13] = test system: NCI-H2085
Outline: as §1

[14] = test system: NCI-H23
Outline: as §1

[15] = test system: NCI-H520
Outline: as §1

[16] = test system: NCI-H647
Outline: as §1

[17] = test system: NCI-H650
Outline: as §1

[18] = test system: NCI-H661
Outline: as §1

[19] = test system: NCI-H727
Outline: as §1

[20] = test system: NCI-H838
Outline: as §1

[21] = test system: PC-3 [JPC-3]
Outline: as §1

[22] = test system: RERF-LC-KJ
Outline: as §1

[23] = test system: SK-LU-1
Outline: as §1

[24] = test system: SK-MES-1
Outline: as §1

SMILES: Nc1cccc2c1CN(C1CCC(=O)NC1=O)C2=O (stereo not drawn) [Lenalidomide] + Cc1cc(Nc2cc(N3CCN(C)CC3)nc(Sc3ccc(NC(=O)C4CC4)cc3)n2)n[nH]1 [Tozasertib] (partner 0.1 µM)
- relative viability ([1]; first compound 0.253 µM): 0.197
- relative viability ([1]; first compound 0.8 µM): 0.222
- relative viability ([1]; first compound 2.53 µM): 0.22
- relative viability ([1]; first compound 8 µM): 0.216
- relative viability ([2]; first compound 0.253 µM): 0.594
- relative viability ([2]; first compound 0.8 µM): 0.462
- relative viability ([2]; first compound 2.53 µM): 0.441
- relative viability ([2]; first compound 8 µM): 0.57
- relative viability ([3]; first compound 0.253 µM): 0.602
- relative viability ([3]; first compound 0.8 µM): 0.79
- relative viability ([3]; first compound 2.53 µM): 0.662
- relative viability ([3]; first compound 8 µM): 0.536
- relative viability ([4]; first compound 0.253 µM): 0.352
- relative viability ([4]; first compound 0.8 µM): 0.431
- relative viability ([4]; first compound 2.53 µM): 0.446
- relative viability ([4]; first compound 8 µM): 0.496
- relative viability ([5]; first compound 0.253 µM): 0.538
- relative viability ([5]; first compound 2.53 µM): 0.469
- relative viability ([5]; first compound 8 µM): 0.469
- relative viability ([6]; first compound 0.253 µM): 0.227
- relative viability ([6]; first compound 0.8 µM): 0.277
- relative viability ([6]; first compound 2.53 µM): 0.256
- relative viability ([6]; first compound 8 µM): 0.232
- relative viability ([7]; first compound 0.253 µM): 0.692
- relative viability ([7]; first compound 0.8 µM): 0.753
- relative viability ([7]; first compound 2.53 µM): 0.818
- relative viability ([7]; first compound 8 µM): 0.678
- relative viability ([8]; first compound 0.8 µM): 0.58
- relative viability ([8]; first compound 2.53 µM): 0.563
- relative viability ([8]; first compound 8 µM): 0.592
- relative viability ([9]; first compound 0.253 µM): 0.749
- relative viability ([9]; first compound 0.8 µM): 0.772
- relative viability ([9]; first compound 2.53 µM): 0.819
- relative viability ([9]; first compound 8 µM): 0.815
- relative viability ([10]; first compound 0.253 µM): 0.638
- relative viability ([10]; first compound 0.8 µM): 0.614
- relative viability ([10]; first compound 2.53 µM): 0.597
- relative viability ([10]; first compound 8 µM): 0.541
- relative viability ([11]; first compound 0.253 µM): 0.529
- relative viability ([11]; first compound 0.8 µM): 0.572
- relative viability ([11]; first compound 2.53 µM): 0.618
- relative viability ([11]; first compound 8 µM): 0.524
- relative viability ([12]; first compound 0.253 µM): 0.776
- relative viability ([12]; first compound 0.8 µM): 0.761
- relative viability ([12]; first compound 2.53 µM): 0.836
- relative viability ([12]; first compound 8 µM): 0.847
- relative viability ([13]; first compound 0.253 µM): 0.819
- relative viability ([13]; first compound 0.8 µM): 0.886
- relative viability ([13]; first compound 2.53 µM): 0.938
- relative viability ([13]; first compound 8 µM): 0.878
- relative viability ([14]; first compound 0.253 µM): 0.438
- relative viability ([14]; first compound 0.8 µM): 0.343
- relative viability ([14]; first compound 2.53 µM): 0.723
- relative viability ([14]; first compound 8 µM): 0.405
- relative viability ([15]; first compound 0.253 µM): 0.429
- relative viability ([15]; first compound 0.8 µM): 0.461
- relative viability ([15]; first compound 2.53 µM): 0.468
- relative viability ([15]; first compound 8 µM): 0.374
- relative viability ([16]; first compound 0.253 µM): 0.339
- relative viability ([16]; first compound 0.8 µM): 0.27
- relative viability ([16]; first compound 2.53 µM): 0.26
- relative viability ([16]; first compound 8 µM): 0.355
- relative viability ([17]; first compound 0.253 µM): 0.795
- relative viability ([17]; first compound 2.53 µM): 0.869
- relative viability ([17]; first compound 8 µM): 0.714
- relative viability ([18]; first compound 0.253 µM): 0.379
- relative viability ([18]; first compound 0.8 µM): 0.368
- relative viability ([18]; first compound 2.53 µM): 0.335
- relative viability ([18]; first compound 8 µM): 0.374
- relative viability ([19]; first compound 0.253 µM): 0.615
- relative viability ([19]; first compound 0.8 µM): 0.585
- relative viability ([19]; first compound 2.53 µM): 0.56
- relative viability ([19]; first compound 8 µM): 0.756
- relative viability ([20]; first compound 0.253 µM): 0.322
- relative viability ([20]; first compound 0.8 µM): 0.28
- relative viability ([20]; first compound 2.53 µM): 0.317
- relative viability ([20]; first compound 8 µM): 0.298
- relative viability ([21]; first compound 0.253 µM): 0.909
- relative viability ([21]; first compound 0.8 µM): 0.899
- relative viability ([21]; first compound 2.53 µM): 1.03
- relative viability ([21]; first compound 8 µM): 0.955
- relative viability ([22]; first compound 0.253 µM): 0.507
- relative viability ([22]; first compound 0.8 µM): 0.566
- relative viability ([22]; first compound 2.53 µM): 0.515
- relative viability ([22]; first compound 8 µM): 0.568
- relative viability ([23]; first compound 0.253 µM): 0.376
- relative viability ([23]; first compound 0.8 µM): 0.304
- relative viability ([23]; first compound 2.53 µM): 0.399
- relative viability ([23]; first compound 8 µM): 0.392
- relative viability ([24]; first compound 0.253 µM): 0.865
- relative viability ([24]; first compound 0.8 µM): 0.802
- relative viability ([24]; first compound 2.53 µM): 0.913
- relative viability ([24]; first compound 8 µM): 0.98
